In US8067582B2 (Bristol-Myers Squibb Company, priority 2007, dated 2011):
Read-outs that look alike come from different tables or passages of the source.

Key:
[1] = target: T1, androgen receptor (AR) (Homo sapiens, UniProt P10275); assay: MDA-MB-453 Androgen Receptor Transactivation Assay (PSA-Luc reporter, 3 nM DHT); type: cell-based; details: MDA-MB-453 cells, antagonism in presence of 3 nM DHT, 48 hour incubation
T1 sequence (P10275 1-920): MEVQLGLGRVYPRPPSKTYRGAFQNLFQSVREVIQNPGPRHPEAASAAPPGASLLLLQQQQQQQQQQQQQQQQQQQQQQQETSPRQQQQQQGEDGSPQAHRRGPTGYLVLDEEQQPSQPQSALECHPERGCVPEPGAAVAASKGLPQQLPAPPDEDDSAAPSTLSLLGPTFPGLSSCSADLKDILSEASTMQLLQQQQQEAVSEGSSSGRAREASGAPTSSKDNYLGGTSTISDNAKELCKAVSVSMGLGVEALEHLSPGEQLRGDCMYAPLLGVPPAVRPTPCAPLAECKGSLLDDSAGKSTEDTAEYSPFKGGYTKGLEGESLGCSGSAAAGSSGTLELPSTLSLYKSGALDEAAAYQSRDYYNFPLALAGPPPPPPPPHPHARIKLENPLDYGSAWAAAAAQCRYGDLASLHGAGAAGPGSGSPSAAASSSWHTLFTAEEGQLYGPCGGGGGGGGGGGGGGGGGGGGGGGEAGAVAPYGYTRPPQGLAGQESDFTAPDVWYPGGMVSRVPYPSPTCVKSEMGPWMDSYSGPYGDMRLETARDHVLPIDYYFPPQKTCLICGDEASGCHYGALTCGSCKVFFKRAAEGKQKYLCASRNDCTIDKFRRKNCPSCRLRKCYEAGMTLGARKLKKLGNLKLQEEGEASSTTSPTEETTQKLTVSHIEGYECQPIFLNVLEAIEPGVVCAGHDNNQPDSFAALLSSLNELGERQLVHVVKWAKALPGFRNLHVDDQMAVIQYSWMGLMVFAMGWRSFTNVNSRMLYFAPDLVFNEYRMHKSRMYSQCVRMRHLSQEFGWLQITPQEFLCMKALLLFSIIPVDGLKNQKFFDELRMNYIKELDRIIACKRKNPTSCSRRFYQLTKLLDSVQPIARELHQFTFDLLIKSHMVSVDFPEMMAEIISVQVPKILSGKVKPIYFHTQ
From the text: Compounds can be tested in a cell based transactivation assay used to measure the antagonism of androgen receptor (AR) transcriptional activity. The transactivation assay provides a means of identifying antagonists that inhibit the effects of the native hormone dihydrotestosterone (DHT). […] The pGL3 PSA-Luc reporter plasmid is comprised of the cDNA for the firefly luciferase gene and the upstream promoter sequences containing the androgen response elements (AREs) of the prostate specific antigen (PSA). This plasmid functions as a reporter for the transcription-modulating activity of the AR. In order to detect antagonists, the transactivation assay is conducted in the presence of constant concentration of the natural AR hormone (DHT) to induce a defined reporter signal. Addition of increasing concentrations of the suspected antagonist will decrease the reporter signal (luciferase activity).
MDA-MB-453 and 22 RV1 cells were maintained in DMEM (Cellgro, Cat. #10-014-CM) or RPMI 1640 (Gibco Cat. #11875-085) respectively and supplemented with 10% FBS (Invitrogen/GIBCO Life Science). Cells were bulk transfected in flasks with 1.3 ug/ml pGL3 PSA-Luc plasmid by using the Lipofectamine 2000 Reagent (Invitrogen, Cat. #11668-019) and serum-free Opti-MEM I media (Invitrogen, Cat #31985-070) according to the manufacturer's optimized conditions. Transfection was conducted at 37° C. with 5% CO2 for 16-18 hours. Following transfection, cells are washed, treated with trypsin, counted, and seeded in a 96-well plate at 30,000 cells per well in DMEM containing 10% Charcoal/Dextran Treated Fetal Bovine Serum (Gibco Cat. #11054-020) for MDA-MB-453 cells or RPMI 1640 (Gibco Cat. #110835) containing 10% FBS (Invitrogen/GIBCO Life Science) for 22 RV1 cells.
Following transfection, cells were incubated in the absence (blank) or presence (control) of 3 nM DHT (Sigma, Cat. #A-8380) and in the presence or absence of the standard antiandrogen bicalutamide or test compounds ranging in concentrations from 10^−10 to 10^−5M. Duplicates were used for each sample. The compound dilutions were performed by the Tecan Genesis (Tecan, Triangle Park, N.C.). After a 48 hour incubation, luciferase activity was measured using the Steady-Glo Luciferase Assay System (Promega, Cat. #E2550) according to manufacturer's specifications and luminescence was measured on a Packard TopCount (PerkinElmer). For each luciferase sample reading, the percent control (in absence of compounds) was calculated as: % Control=100×[averagesample−averageblank]/[averagecontrol−averageblank] Data was plotted and the IC50 value was defined as the concentration of compound that inhibited 50% of the luciferase activity for the controls.
Compounds described herein were tested in the AR transactivation assay described immediately above, using MDA-MB-453 cells.

[2] = system: immature castrated male rats; assay: Immature Rat Prostate Weight (IRPW) Assay; type: in vivo, rat (Sprague-Dawley); details: for EC50 (increase in organ weight, VP and SV): dosing for 3 days
[3] = Rattus norvegicus, po, 96 h, read-out: IRPW SV/FB (% control)

## C[C@]12O[C@@]3(CCO[C@H]4[C@@H]3[C@@H]1C(=O)N4c1ccc(C#N)c(C(F)(F)F)c1)C[C@H]2O (single isomer, unassigned) [Example 1]
[1]
  IC50: 0.177 µM
[2]; [3]
  response vs control in vivo at 5 mg/kg: 54%

## C[C@@]12C[C@H](O)[C@]3(CCO[C@H]4[C@@H]3[C@@H]1C(=O)N4c1ccc(C#N)c(C(F)(F)F)c1)O2 (single isomer, unassigned) [Example 3]
[1]
  IC50: 0.175 µM
[2]; [3]
  response vs control in vivo at 3 mg/kg: 41%

## C[C@@]12C[C@@H](O)[C@]3(CCO[C@H]4[C@@H]3[C@@H]1C(=O)N4c1ccc(C#N)c(C(F)(F)F)c1)O2 [Example 6, 4-((1R,2R,4R,5S,8S,12R)-2-hydroxy-4-methyl-6-oxo-9,13-dioxa-7-azatetracyclo[6.3.1.1^1,4.0^5,12]tridec-7-yl)-2-(trifluoromethyl)benzonitrile]
[1]
  IC50: 0.281 µM
[2]; [3]
  response vs control in vivo at 3 mg/kg: 37%

## COC(=O)N[C@@H]1C[C@]23CCO[C@@H]4[C@H]2[C@@H](C(=O)N4c2ccc(C#N)c(C(F)(F)F)c2)[C@@]1(C)O3 [Example 14, Methyl ((1S,3R,4R,5R,8R,12S)-7-(4-cyano-3-(trifluoromethyl)phenyl)-4-methyl-6-oxo-9,13-dioxa-7-azatetracyclo[6.3.1.1^1,4.0^5,12]tridec-3-yl)carbamate]
[1]
  IC50: 0.185 µM
[2]; [3]
  response vs control in vivo at 3 mg/kg: 35%

## CO/N=C1\C[C@@]2(C)O[C@@]13CCO[C@H]1[C@@H]3[C@@H]2C(=O)N1c1ccc(C#N)c(C(F)(F)F)c1 [Example 30, 4-((1R,2E,4R,5S,8S,12R)-2-(methoxyimino)-4-methyl-6-oxo-9,13-dioxa-7-azatetracyclo[6.3.1.1^1,4.0^5,12]tridec-7-yl)-2-(trifluoromethyl)benzonitrile]
[1]
  IC50: 0.031 µM
[2]; [3]
  response vs control in vivo at 3 mg/kg: 37%

## C[C@@]12CC[C@]3(CCO[C@H]4[C@@H]3[C@@H]1C(=O)N4c1ccc(C#N)c(C(F)(F)F)c1)O2 [Example 50, 4-((1R,4R,5S,8S,12R)-4-methyl-6-oxo-9,13-dioxa-7-azatetracyclo[6.3.1.1^1,4.0^5,12]tridec-7-yl)-2-(trifluoromethyl)benzonitrile]
[1]
  IC50: 0.042 µM
[2]; [3]
  response vs control in vivo at 3 mg/kg: 46%

## C[C@]12O[C@@]3(CCO[C@H]4[C@@H]3[C@@H]1C(=O)N4c1ccc(Cl)c(F)c1)C[C@H]2O [Example 138, (1S,3R,4S,5S,8S,12R)-7-(4-chloro-3-fluorophenyl)-3-hydroxy-4-methyl-9,13-dioxa-7-azatetracyclo[6.3.1.1^1,4.0^5,12]tridecan-6-one]
[1]; read-out: IC50
  IC50: 6.05 µM

## Cc1c(N2C(=O)[C@H]3[C@H]4[C@@H]2OCC[C@]42C[C@@H](O)[C@@]3(C)O2)ccc(C#N)c1C(F)(F)F [Example 142, 4-((1S,3R,4S,5S,8S,12R)-3-hydroxy-4-methyl-6-oxo-9,13-dioxa-7-azatetracyclo[6.3.1.1^1,4.0^5,12]tridec-7-yl)-3-methyl-2-(trifluoromethyl)benzonitrile]
[1]
  IC50: 0.95 µM

## C#Cc1cc(N2C(=O)[C@H]3[C@H]4[C@@H]2OCC[C@]42C[C@@H](O)[C@@]3(C)O2)ccc1Cl [Example 145, (1S,3R,4S,5S,8S,12R)-7-(4-chloro-3-ethynylphenyl)-3-hydroxy-4-methyl-9,13-dioxa-7-azatetracyclo[6.3.1.1^1,4.0^5,12]tridecan-6-one]
[1]; read-out: IC50
  IC50: 1.72 µM

## C[C@]12O[C@@]3(CCO[C@H]4[C@@H]3[C@@H]1C(=O)N4c1cc(Cl)cc(Cl)c1)C[C@H]2O [Example 149, (1S,3R,4S,5S,8S,12R)-7-(3,5-dichlorophenyl)-3-hydroxy-4-methyl-9,13-dioxa-7-azatetracyclo[6.3.1.1^1,4.0^5,12]tridecan-6-one]
[1]; read-out: IC50
  IC50: 1.1 µM

## C[C@@]12C[C@H](NC(=O)OCCO)[C@]3(CCO[C@H]4[C@@H]3[C@@H]1C(=O)N4c1ccc(C#N)c(C(F)(F)F)c1)O2 [Example 162, 2-Hydroxyethyl ((1R,2S,4R,5S,8S,12R)-7-(4-cyano-3-(trifluoromethyl)phenyl)-4-methyl-6-oxo-9,13-dioxa-7-azatetracyclo[6.3.1.1^1,4.0^5,12]tridec-2-yl)carbamate]
[1]
  IC50: 1.96 µM

## CCS(=O)(=O)N[C@H]1C[C@@]2(C)O[C@@]13CCO[C@H]1[C@@H]3[C@@H]2C(=O)N1c1ccc(C#N)c(C(F)(F)F)c1F [Example 190, N-((1R,2S,4R,5S,8S,12R)-7-(4-Cyano-2-fluoro-3-(trifluoromethyl)phenyl)-4-methyl-6-oxo-9,13-dioxa-7-azatetracyclo[6.3.1.1^1,4.0^5,12]tridec-2-yl)ethanesulfonamide]
[1]
  IC50: 2.27 µM

## C[C@@]12C[C@@H](NS(=O)(=O)C3CC3)[C@]3(CCO[C@H]4[C@@H]3[C@@H]1C(=O)N4c1ccc(C#N)c(C(F)(F)F)c1)O2 [Example 196, N-((1R,2R,4R,5S,8S,12R)-7-(4-Cyano-3-(trifluoromethyl)phenyl)-4-methyl-6-oxo-9,13-dioxa-7-azatetracyclo[6.3.1.1^1,4.0^5,12]tridec-2-yl)cyclopropanesulfonamide]
[1]
  IC50: 0.046 µM

## CCC(=O)N[C@H]1C[C@@]2(C)O[C@@]13CCO[C@H]1[C@@H]3[C@@H]2C(=O)N1c1ccc(C#N)c(Cl)c1 [Example 214, N-((1R,2S,4R,5S,8S,12R)-7-(3-chloro-4-cyanophenyl)-4-methyl-6-oxo-9,13-dioxa-7-azatetracyclo[6.3.1.1^1,4.0^5,12]tridec-2-yl)propanamide]
[1]
  IC50: 5.65 µM

## CCS(=O)(=O)N[C@H]1C[C@@]23CCO[C@H]4[C@@H]2[C@H](C(=O)N4c2ccc(C#N)c(C(F)(F)F)c2)[C@]1(C)O3 [Example 222, N-((1R,3S,4S,5S,8S,12R)-7-(4-cyano-3-(trifluoromethyl)phenyl)-4-methyl-6-oxo-9,13-dioxa-7-azatetracyclo[6.3.1.1^1,4.0^5,12]tridec-3-yl)ethanesulfonamide]
[1]
  IC50: 0.058 µM

## C[C@]12C[C@@H](O)[C@@]3(CCO[C@@H]4[C@H]3[C@H]1C(=O)N4c1ccc(C#N)c(Br)c1)O2 [Example 240, 2-Bromo-4-((1S,2R,4S,5R,8R,12S)-2-hydroxy-4-methyl-6-oxo-9,13-dioxa-7-azatetracyclo[6.3.1.1^1,4.0^5,12]tridec-7-yl)benzonitrile]
[1]; read-out: IC50
  IC50: 6.38 µM

## C[C@]12CC[C@H]3[C@@H](CCC4=CC(=O)CC[C@@]43C)[C@@H]1CC[C@@H]2O [T, testosterone, reference compound]
[2]; immature castrated rats
  EC50 (increase in organ weight, VP and SV): about 1 mg

## CCC(=O)O[C@H]1CC[C@H]2[C@@H]3CCC4=CC(=O)CC[C@]4(C)[C@H]3CC[C@]12C [TP, Testosterone Propionate, reference compound]
[2]; TP versus free T, immature castrated rats
  potency relative to free T: 10-30 fold
[2]; immature castrated rats
  EC50 (increase in organ weight, VP and SV): ~0.03 mg
